Results reported in ChEMBL document CHEMBL3352672, “Lithocarpic acids O-S, five homo-cycloartane derivatives from the cupules of Lithocarpus polystachyus” (Bioorg Med Chem Lett, 2014).
pIC50: −log10 of the molar value.

How the values were obtained:
Assay type in all cases: cell-based
[1] = molecular target: T1, 11-beta-hydroxysteroid dehydrogenase 1 (Homo sapiens, UniProt P28845); test: Inhibition of human 11beta-HSD1 in expressed in HEK293 cells microsomal fractions incubated with NADPH and [3H]-cortisone by scintillation proximity assay
Target sequence in this assay (P28845 whole entry): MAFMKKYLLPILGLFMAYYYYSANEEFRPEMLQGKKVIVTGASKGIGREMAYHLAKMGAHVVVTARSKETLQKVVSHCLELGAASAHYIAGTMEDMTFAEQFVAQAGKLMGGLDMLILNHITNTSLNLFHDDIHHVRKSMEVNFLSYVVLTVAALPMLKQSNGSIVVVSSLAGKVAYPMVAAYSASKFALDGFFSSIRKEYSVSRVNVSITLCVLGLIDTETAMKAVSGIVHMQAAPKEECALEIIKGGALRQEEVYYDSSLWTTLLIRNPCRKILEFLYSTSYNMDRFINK

[2] = molecular target: 11-beta-hydroxysteroid dehydrogenase 1 (Mus musculus) (UniProt P50172); test: Inhibition of mouse 11beta-HSD1 in expressed in HEK293 cells microsomal fractions incubated with NADPH and [3H]-cortisone at 10 uM by scintillation proximity assay
Sequence of 11-beta-hydroxysteroid dehydrogenase 1 (Mus musculus) (P50172 whole entry, looked up): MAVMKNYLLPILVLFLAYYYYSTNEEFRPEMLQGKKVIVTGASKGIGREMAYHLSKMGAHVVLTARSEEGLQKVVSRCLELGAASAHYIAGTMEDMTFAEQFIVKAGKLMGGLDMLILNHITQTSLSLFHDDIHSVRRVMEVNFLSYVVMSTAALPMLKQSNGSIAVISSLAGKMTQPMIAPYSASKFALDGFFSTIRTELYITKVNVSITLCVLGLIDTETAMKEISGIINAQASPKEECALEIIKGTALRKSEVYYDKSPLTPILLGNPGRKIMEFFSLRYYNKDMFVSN

[3] = molecular target: T1, 11-beta-hydroxysteroid dehydrogenase 1; test: Inhibition of human 11beta-HSD1 in expressed in HEK293 cells microsomal fractions incubated with NADPH and [3H]-cortisone at 10 uM by scintillation proximity assay
Target sequence in this assay (P28845 whole entry, looked up): as the sequence (P28845 whole entry) above

[4] = molecular target: 11-beta-hydroxysteroid dehydrogenase 1 (Mus musculus, UniProt P50172); test: Inhibition of mouse 11beta-HSD1 in expressed in HEK293 cells microsomal fractions incubated with NADPH and [3H]-cortisone by scintillation proximity assay
Sequence of 11-beta-hydroxysteroid dehydrogenase 1 (Mus musculus, UniProt P50172) (P50172 whole entry): as the sequence (P50172 whole entry, looked up) above

**Q.** How did the pIC50 [1] turn out when C=C(CC[C@@H](COC(C)=O)[C@H]1CC[C@@]2(C)[C@@H]3CC[C@@H](C(C)(C)O)[C@@]4(CCC(=O)O)C[C@@]34CC[C@]12C)C(C)C was run?
**A.** 5.42

**Q.** C=C(CC[C@@H](CO)[C@H]1CC[C@@]2(C)[C@@H]3CC[C@@H](C(=C)C)[C@@]4(CCC(=O)O)C[C@@]34CC[C@]12C)C(C)C was tested. Which inhibition [2] did it give?
**A.** 94%

**Q.** And the inhibition [3]?
**A.** > 80%

**Q.** And the pIC50 [1]?
**A.** 5.85

**Q.** What about the pIC50 [4] of the same compound?
**A.** 6.31

**Q.** How did the inhibition [2] turn out when C=C(CC[C@@H](C(=O)O)[C@H]1CC[C@@]2(C)[C@@H]3CC[C@H]4C(C)(C)C(=O)CC[C@@]45C[C@@]35CC[C@]12C)C(C)C was run?
**A.** > 60%

**Q.** And the pIC50 [1]?
**A.** 5.64

**Q.** Which inhibition [2] does the source give for C=C(CC[C@@H](COC(C)=O)[C@H]1CC[C@@]2(C)[C@@H]3CC[C@@H](C(=C)C)[C@@]4(CCC(=O)O)C[C@@]34CC[C@]12C)C(C)C here?
**A.** 73%

**Q.** And the inhibition [3]?
**A.** > 60%

**Q.** What about the pIC50 [1] of the same compound?
**A.** 5.39

**Q.** What about the pIC50 [4] of the same compound?
**A.** 5.55
